Experimental findings from PubChem BioAssay (NCI) are described below.

Among the test systems are SW-620 colon; LOX IMVI melanoma; M14 melanoma; K-562 leukemia; SF-295 CNS; HT29 colon; HCT-116 colon; PC-3 prostate; SF-539 CNS; MDA-MB-435.
Assay in all cases: inhibition of tumour cell growth, NCI panel, 48 h

Structures are written as SMILES.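 Exposure lasted 48 hours, with cells grown in 96-well plates and compounds tested at five concentrations. Abbreviation: GI50, concentration required for 50% inhibition of growth. The concentration for full growth arrest is given as TGI.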 A value given as a limit tells only on which side of the number the result lay.

Consider `CC1(CC(=O)O)OC2CCCCCC2O1` (configuration not stated) (tested in a mixture with another compound), for which the TGI with SW-620 colon, with LOX IMVI melanoma, with M14 melanoma, with K-562 leukemia, with SF-295 CNS and in the assay on HT29 colon was greater than 100 µM throughout. Further, the TGI in the assay on HCT-116 colon, in the assay with PC-3 prostate, with SF-539 CNS and in the assay on MDA-MB-435 was greater than 100 µM throughout.
Turning to `CCOC(=O)c1[nH]c2c(c1C)-c1[nH]c(=O)c(S(=O)(=O)c3ccccc3)cc1SC2`, the GI50 in the assay on SW-620 colon is 57.9 µM; in the assay on M14 melanoma, 38.8 µM; in the assay with K-562 leukemia it was 23.2 µM; in the assay on SF-295 CNS, 28100 nM; in the assay on HT29 colon, 40700 nM; in the assay with HCT-116 colon, 36.1 µM. Besides, the GI50 with PC-3 prostate was 17.7 µM; in the assay with SF-539 CNS, 30.6 µM; in the assay with MDA-MB-435, 42800 nM. In addition, the TGI in the assay with SW-620 colon, with M14 melanoma, with K-562 leukemia, in the assay with SF-295 CNS, with HT29 colon and in the assay on HCT-116 colon was greater than 100 µM each time. Besides, the TGI in the assay on PC-3 prostate, in the assay on SF-539 CNS and in the assay on MDA-MB-435 was greater than 100 µM in each case.
On to `CC[C@@]1(OC(=O)CN)C(=O)OCc2c1cc1n(c2=O)Cc2cc3cc(N)ccc3nc2-1`, for which the GI50 with SW-620 colon was 0.0231 µM; with LOX IMVI melanoma it was less than 0.01 µM; with M14 melanoma, less than 0.01 µM; in the assay on SF-295 CNS, less than 10 nM; with HT29 colon it was 127 nM; in the assay on PC-3 prostate, 0.0711 µM. For the same molecule, the values for the GI50 in the assay on SF-539 CNS and in the assay with MDA-MB-435 were less than 0.01 µM and 80.2 nM, respectively. In addition, the TGI with SW-620 colon was greater than 100 µM; with LOX IMVI melanoma, 0.103 µM; with M14 melanoma it was 0.122 µM; in the assay with SF-295 CNS it was greater than 100 µM; in the assay with HT29 colon it was greater than 100 µM; in the assay on PC-3 prostate, greater than 100 µM. Further, the values for the TGI with SF-539 CNS and in the assay with MDA-MB-435 were 0.0126 µM and 0.381 µM, respectively.
Consider `Cc1ccc(NCSc2ccc(Cl)cc2)cc1`, for which the GI50 with SW-620 colon was greater than 100 µM; in the assay with LOX IMVI melanoma, greater than 100 µM; in the assay on M14 melanoma, 77.1 µM; in the assay on K-562 leukemia, greater than 100 µM; in the assay with SF-295 CNS, 24900 nM; in the assay on HT29 colon it was greater than 100000 nM. Moreover, the GI50 is 55.4 µM in the assay with HCT-116 colon, 10.2 µM in the assay with PC-3 prostate, 22.9 µM in the assay with SF-539 CNS and 9990 nM in the assay on MDA-MB-435. The TGI with SW-620 colon, in the assay on LOX IMVI melanoma, with M14 melanoma, in the assay on K-562 leukemia, in the assay with SF-295 CNS and in the assay with HT29 colon was greater than 100 µM each time. Moreover, the TGI with HCT-116 colon, with PC-3 prostate, in the assay with SF-539 CNS and with MDA-MB-435 was greater than 100 µM each time.
For `CC1Cc2c(N(C)C)ncnc2N(C)c2ccc(Cl)cc21` (configuration not stated), the GI50 was 3.35 µM with SW-620 colon; 6 µM with LOX IMVI melanoma; 2.39 µM in the assay on M14 melanoma; 0.781 µM with K-562 leukemia; 1980 nM with SF-295 CNS; 3220 nM with HT29 colon. Also, the GI50 in the assay with HCT-116 colon is 3.48 µM; in the assay on PC-3 prostate it was 3.41 µM; in the assay on SF-539 CNS, 2.93 µM; in the assay with MDA-MB-435, 397 nM. The TGI in the assay with SW-620 colon is greater than 100 µM; in the assay with LOX IMVI melanoma it was 27.2 µM; in the assay with M14 melanoma, greater than 100 µM; in the assay on K-562 leukemia it was greater than 100 µM; in the assay on SF-295 CNS, 9.85 µM; in the assay on HT29 colon, 37 µM. Also, the TGI in the assay on HCT-116 colon is 23.6 µM; with PC-3 prostate, 81.6 µM; with SF-539 CNS, 12.2 µM; in the assay with MDA-MB-435 it was greater than 100 µM.
Turning to `COc1cc(C2C3=C(COC3=O)N(CCO)c3cc4c(cc32)CCC4)cc(OC)c1O` (configuration not stated), the GI50 in the assay with SW-620 colon is 0.121 µM; with LOX IMVI melanoma it was 0.187 µM; with M14 melanoma, 0.179 µM; with K-562 leukemia, 0.161 µM; with SF-295 CNS it was 97.3 nM; with HT29 colon, 156 nM. For the same molecule, the GI50 was 0.138 µM in the assay on HCT-116 colon, 0.203 µM in the assay with PC-3 prostate, 0.136 µM with SF-539 CNS and 64.6 nM in the assay on MDA-MB-435. In addition, the TGI was greater than 32.5 µM in the assay on SW-620 colon; greater than 32.5 µM in the assay on LOX IMVI melanoma; greater than 32.5 µM with K-562 leukemia; 0.354 µM with SF-295 CNS; greater than 12.5 µM in the assay with HCT-116 colon; greater than 32.5 µM in the assay with PC-3 prostate. Moreover, the TGI is greater than 32.5 µM in the assay on SF-539 CNS and 0.191 µM in the assay on MDA-MB-435.
As for `CO[C@H]1C=C[C@]23c4cc5c(cc4CN(CC2O)[C@@H]3C1)OCO5` (some centres not stated), the TGI in the assay with SW-620 colon was greater than 100 µM; with LOX IMVI melanoma, 21.3 µM; in the assay on M14 melanoma, greater than 100 µM; with K-562 leukemia, greater than 100 µM; in the assay on SF-295 CNS it was 4.14 µM; in the assay with HT29 colon, 39.7 µM. Also, the TGI was found to be 19.3 µM in the assay on HCT-116 colon, 18.6 µM with PC-3 prostate, 14.6 µM in the assay with SF-539 CNS and 41.9 µM with MDA-MB-435.
Turning to `Cc1nn(-c2ccccc2)c2c1C1C(=C(c3ccc(Cl)cc3)N2)C(=O)Nc2ccccc21` (configuration not stated), the GI50 is 4.16 µM in the assay on SW-620 colon; 3.54 µM in the assay with LOX IMVI melanoma; 3.26 µM in the assay with M14 melanoma; 3.33 µM with K-562 leukemia; 2490 nM with SF-295 CNS; 2890 nM in the assay with HT29 colon. Further, the GI50 with HCT-116 colon is 3.55 µM; in the assay with PC-3 prostate it was 2.65 µM; in the assay with SF-539 CNS, 3.15 µM; in the assay with MDA-MB-435 it was 3260 nM. The TGI in the assay with SW-620 colon is greater than 100 µM; in the assay on LOX IMVI melanoma, 12 µM; with M14 melanoma it was 15.2 µM; with K-562 leukemia, 46.7 µM; with SF-295 CNS, 7.77 µM; in the assay with HT29 colon, 8.61 µM. Besides, the TGI in the assay with HCT-116 colon was 14.4 µM; in the assay on PC-3 prostate, 13.1 µM; with SF-539 CNS, 12.9 µM; in the assay on MDA-MB-435 it was 17.2 µM.
